Assay results reported in patent publication US20060069132A1, “Azolecarboxamide herbicides” (priority 2004, published 2006).

What was measured:
[1] = system: barnyardgrass; experiment: Test B pre-/postemergence herbicide test; assay type: in vivo, Echinochloa crus-galli; conditions: for Plant response rating (0 to 100 scale), Barnyardgrass: 0 is no effect; for Plant response rating (0 to 100 scale), Barnyardgrass / Plant response rating, Barnyardgrass: preemergence; for Barnyardgrass plant response rating: postemergence; for Plant response rating, Barnyardgrass: 0 = no effect, 100 = complete control
Summary of the method: (§1)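 Formulation: non-phytotoxic solvent mix with surfactant. Timing: preemergence on seed and postemergence on 2–18 cm plants, applied concurrently. Readout after 13–15 d greenhouse: visual 0–100 control rating against controls.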

[2] = system: giant foxtail; experiment: Test B pre-/postemergence herbicide test; assay type: in vivo, Setaria faberi; conditions: for Plant response rating (0 to 100 scale), Foxtail, Giant: 0 is no effect; for Plant response rating (0 to 100 scale), Foxtail, Giant / Plant response rating, Foxtail, Giant: preemergence; for Foxtail, Giant plant response rating: postemergence; for Plant response rating, Foxtail, Giant: 0 = no effect, 100 = complete control
Summary of the method: (§2)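 Plants compared with untreated controls 13–15 days post-treatment and given a visual 0–100 injury score. Applications: preemergence to seeds; postemergence at 1- to 4-leaf (2–18 cm); paddy species flooded, 2-leaf stage. Vehicle non-phytotoxic, surfactant included.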

[3] = system: barnyardgrass; experiment: Test B flooded paddy test; assay type: in vivo, Echinochloa crus-galli; conditions: 1000 g ai/ha, scale 0 to 100 (0 no effect, 100 complete control)
Summary of the method: (§3)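 Scale 0–100: zero equals no visible effect, 100 complete control, judged by eye relative to controls. Timing: 13 to 15 days in greenhouse post-treatment. Growth stage at spraying: two leaves (paddy) or one to four leaves, 2–18 cm (postemergence).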

[4] = system: morningglory; experiment: Test B pre-/postemergence herbicide test; assay type: in vivo, Ipomoea coccinea; conditions: for Plant response rating (0 to 100 scale), Morningglory: 0 is no effect; for Plant response rating (0 to 100 scale), Morningglory / Plant response rating, Morningglory: preemergence; for Morningglory plant response rating: postemergence; for Plant response rating, Morningglory: 0 = no effect, 100 = complete control
Summary of the method: as §1

[5] = system: wheat; experiment: Test B postemergence herbicide test; assay type: in vivo, Triticum aestivum; set-up: key to Wheat plant response rating: 0 = no effect, 100 = complete control; conditions: postemergence
Summary of the method: (§4)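 Read-out: visual comparison with controls, scored 0 to 100, where 100 means complete control and 0 no effect. Formulated chemicals were applied postemergence to plants 2–18 cm tall (1- to 4-leaf), or to flooded-paddy plants at the 2-leaf stage, then held 13 to 15 days under glass.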

[6] = system: rice; experiment: Test B flooded paddy test; assay type: in vivo, Oryza sativa; conditions: 1000 g ai/ha, scale 0 to 100 (0 no effect, 100 complete control)
Summary of the method: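 Formulated test chemicals went onto postemergence plants measuring 2 to 18 cm, at one to four leaves. For the paddy assay, species had reached two leaves. Scoring took place 13–15 days later by eye, relative to untreated plants, using 0 for no effect up to 100 for full control.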

[7] = system: velvetleaf; experiment: Test B pre-/postemergence herbicide test; assay type: in vivo, Abutilon theophrasti; conditions: for Plant response rating (0 to 100 scale), Velvetleaf: 0 is no effect; for Velvetleaf plant response rating: postemergence
Summary of the method: as §2

[8] = system: blackgrass; experiment: Test B postemergence herbicide test; assay type: in vivo, Alopecurus myosuroides; conditions: postemergence
Summary of the method: as §3

[9] = system: large crabgrass; experiment: Test B pre-/postemergence herbicide test; assay type: in vivo, Digitaria sanguinalis; conditions: for Plant response rating (0 to 100 scale), Crabgrass, Large: 0 is no effect; for Plant response rating (0 to 100 scale), Crabgrass, Large / Plant response rating, Crabgrass, Large: preemergence; for Crabgrass, Large plant response rating: postemergence; for Plant response rating, Crabgrass, Large: 0 = no effect, 100 = complete control
Summary of the method: as §2

[10] = system: wild oat; experiment: Test B postemergence herbicide test; assay type: in vivo, Avena fatua; conditions: postemergence
Summary of the method: as §4

[11] = system: pigweed; experiment: Test B pre-/postemergence herbicide test; assay type: in vivo, Amaranthus retroflexus; conditions: for Plant response rating (0 to 100 scale), Pigweed: 0 is no effect; for Plant response rating (0 to 100 scale), Pigweed / Plant response rating, Pigweed: preemergence; for Pigweed plant response rating: postemergence; for Plant response rating, Pigweed: 0 = no effect, 100 = complete control
Summary of the method: as §2

[12] = system: cocklebur; experiment: Test B pre-/postemergence herbicide test; assay type: in vivo, Xanthium strumarium; conditions: for Plant response rating (0 to 100 scale), Cocklebur: 0 is no effect; for Plant response rating (0 to 100 scale), Cocklebur / Plant response rating, Cocklebur: preemergence; for Cocklebur plant response rating: postemergence; for Plant response rating, Cocklebur: 0 = no effect, 100 = complete control
Summary of the method: as §1

[13] = system: Surinam grass; experiment: Test B pre-/postemergence herbicide test; assay type: in vivo, Urochloa decumbens; conditions: for Plant response rating (0 to 100 scale), Surinam Grass: 0 is no effect; for Plant response rating (0 to 100 scale), Surinam Grass / Plant response rating, Surinam Grass: preemergence; for Surinam Grass plant response rating: postemergence; for Plant response rating, Surinam Grass: 0 = no effect, 100 = complete control
Summary of the method: as §2

[14] = system: lambsquarters; experiment: Test B pre-/postemergence herbicide test; assay type: in vivo, Chenopodium album; conditions: for Plant response rating (0 to 100 scale), Lambsquarters: 0 is no effect; for Plant response rating (0 to 100 scale), Lambsquarters / Plant response rating, Lambsquarters: preemergence; for Lambsquarters plant response rating: postemergence; for Plant response rating, Lambsquarters: 0 = no effect, 100 = complete control
Summary of the method: as §2

[15] = system: small flower umbrella sedge; experiment: Test B flooded paddy test; assay type: in vivo, Cyperus difformis; conditions: 1000 g ai/ha, scale 0 to 100 (0 no effect, 100 complete control)
Summary of the method: as §3

[16] = 125 g ai/ha, 100 is complete control
[17] = 125 g ai/ha, visual rating, scale 0 (no effect) to 100 (complete control)
[18] = 500 g ai/ha, scale 0 to 100, 0 is no effect, 100 is complete control
[19] = 125 g ai/ha, 100 is complete control, preemergence

C=CCNC(=O)c1cccc(NC(=O)c2cc(C(C)(C)C)nn2C)n1 [Compound 318]
Plant response rating (0 to 100 scale), Barnyardgrass [1, 16]: 40 | Barnyardgrass plant response rating [1, 17]: 40 | Plant response rating, Barnyardgrass ([1]; 500 g ai/ha, visual rating): 90 | Barnyardgrass plant response rating [1, 18]: 70 | Plant response rating (0 to 100 scale), Foxtail, Giant [2, 16]: 0 | Foxtail, Giant plant response rating [2, 17]: 10 | Plant response rating, Foxtail, Giant ([2]; 500 g ai/ha, visual rating): 80 | Foxtail, Giant plant response rating [2, 18]: 10 | Barnyardgrass plant response rating [3]: 70 | Plant response rating (0 to 100 scale), Morningglory [4, 16]: 0 | Morningglory plant response rating [4, 17]: 0 | Plant response rating, Morningglory ([4]; 500 g ai/ha, visual rating): 30 | Morningglory plant response rating [4, 18]: 80 | Wheat plant response rating [5, 17]: 0 | Wheat plant response rating [5, 18]: 10 | Rice plant response rating [6]: 40 | Plant response rating (0 to 100 scale), Velvetleaf [7, 19]: 20 | Velvetleaf plant response rating [7, 17]: 40 | Velvetleaf plant response rating [7, 18]: 80 | Blackgrass plant response rating [8, 17]: 10 | Blackgrass plant response rating [8, 18]: 10 | Plant response rating (0 to 100 scale), Crabgrass, Large [9, 16]: 10 | Crabgrass, Large plant response rating [9, 17]: 10 | Plant response rating, Crabgrass, Large ([9]; 500 g ai/ha, visual rating): 90 | Crabgrass, Large plant response rating [9, 18]: 60 | Oat, Wild plant response rating [10, 17]: 0 | Oat, Wild plant response rating [10, 18]: 30 | Plant response rating (0 to 100 scale), Pigweed [11, 16]: 90 | Pigweed plant response rating [11, 17]: 70 | Plant response rating, Pigweed ([11]; 500 g ai/ha, visual rating): 100 | Pigweed plant response rating [11, 18]: 100 | Plant response rating (0 to 100 scale), Cocklebur [12, 16]: 0 | Cocklebur plant response rating [12, 17]: 10 | Plant response rating, Cocklebur ([12]; 500 g ai/ha, visual rating): 0 | Cocklebur plant response rating [12, 18]: 80 | Plant response rating (0 to 100 scale), Surinam Grass [13, 16]: 0 | Surinam Grass plant response rating [13, 17]: 10 | Plant response rating, Surinam Grass ([13]; 500 g ai/ha, visual rating): 40 | Surinam Grass plant response rating [13, 18]: 20 | Plant response rating (0 to 100 scale), Lambsquarters [14, 16]: 90 | Lambsquarters plant response rating [14, 17]: 80 | Plant response rating, Lambsquarters ([14]; 500 g ai/ha, visual rating): 100 | Lambsquarters plant response rating [14, 18]: 80 | Sedge, Umbrella plant response rating [15]: 80

C#CCNC(=O)c1cccc(NC(=O)c2sc(C(C)(C)C)nc2CC)c1 [Compound 319]
Plant response rating (0 to 100 scale), Barnyardgrass [1, 16]: 50 | Barnyardgrass plant response rating [1, 17]: 0 | Plant response rating, Barnyardgrass ([1]; 500 g ai/ha, visual rating): 80 | Barnyardgrass plant response rating [1, 18]: 20 | Plant response rating (0 to 100 scale), Foxtail, Giant [2, 16]: 20 | Foxtail, Giant plant response rating [2, 17]: 20 | Plant response rating, Foxtail, Giant ([2]; 500 g ai/ha, visual rating): 50 | Foxtail, Giant plant response rating [2, 18]: 30 | Barnyardgrass plant response rating [3]: 10 | Plant response rating (0 to 100 scale), Morningglory [4, 16]: 10 | Morningglory plant response rating [4, 17]: 10 | Plant response rating, Morningglory ([4]; 500 g ai/ha, visual rating): 20 | Morningglory plant response rating [4, 18]: 20 | Wheat plant response rating [5, 17]: 10 | Wheat plant response rating [5, 18]: 30 | Rice plant response rating [6]: 70 | Plant response rating (0 to 100 scale), Velvetleaf [7, 19]: 0 | Velvetleaf plant response rating [7, 17]: 10 | Plant response rating, Velvetleaf ([7]; 500 g ai/ha, visual rating, 0 = no effect, 100 = complete control, preemergence): 30 | Velvetleaf plant response rating [7, 18]: 20 | Blackgrass plant response rating [8, 17]: 0 | Blackgrass plant response rating [8, 18]: 0 | Plant response rating (0 to 100 scale), Crabgrass, Large [9, 16]: 50 | Crabgrass, Large plant response rating [9, 17]: 20 | Plant response rating, Crabgrass, Large ([9]; 500 g ai/ha, visual rating): 100 | Crabgrass, Large plant response rating [9, 18]: 20 | Oat, Wild plant response rating [10, 17]: 20 | Oat, Wild plant response rating [10, 18]: 20 | Plant response rating (0 to 100 scale), Pigweed [11, 16]: 60 | Pigweed plant response rating [11, 17]: 30 | Plant response rating, Pigweed ([11]; 500 g ai/ha, visual rating): 100 | Pigweed plant response rating [11, 18]: 40 | Plant response rating (0 to 100 scale), Cocklebur [12, 16]: 0 | Cocklebur plant response rating [12, 17]: 20 | Plant response rating, Cocklebur ([12]; 500 g ai/ha, visual rating): 10 | Cocklebur plant response rating [12, 18]: 40 | Plant response rating (0 to 100 scale), Surinam Grass [13, 16]: 20 | Surinam Grass plant response rating [13, 17]: 10 | Plant response rating, Surinam Grass ([13]; 500 g ai/ha, visual rating): 60 | Surinam Grass plant response rating [13, 18]: 20 | Plant response rating (0 to 100 scale), Lambsquarters [14, 16]: 20 | Lambsquarters plant response rating [14, 17]: 50 | Plant response rating, Lambsquarters ([14]; 500 g ai/ha, visual rating): 100 | Lambsquarters plant response rating [14, 18]: 60 | Sedge, Umbrella plant response rating [15]: 80

CCn1nc(C(C)(C)C)cc1C(=O)Nc1cc(OC(F)(F)F)ccc1F [Compound 338]
Plant response rating (0 to 100 scale), Barnyardgrass [1, 16]: 20 | Barnyardgrass plant response rating [1, 17]: 20 | Plant response rating, Barnyardgrass ([1]; 500 g ai/ha, visual rating): 80 | Barnyardgrass plant response rating [1, 18]: 40 | Plant response rating (0 to 100 scale), Foxtail, Giant [2, 16]: 30 | Foxtail, Giant plant response rating [2, 17]: 20 | Plant response rating, Foxtail, Giant ([2]; 500 g ai/ha, visual rating): 100 | Foxtail, Giant plant response rating [2, 18]: 30 | Barnyardgrass plant response rating [3]: 40 | Plant response rating (0 to 100 scale), Morningglory [4, 16]: 0 | Morningglory plant response rating [4, 17]: 60 | Plant response rating, Morningglory ([4]; 500 g ai/ha, visual rating): 10 | Morningglory plant response rating [4, 18]: 100 | Wheat plant response rating [5, 17]: 0 | Wheat plant response rating [5, 18]: 10 | Rice plant response rating [6]: 30 | Velvetleaf plant response rating [7, 17]: 20 | Velvetleaf plant response rating [7, 18]: 50 | Blackgrass plant response rating [8, 17]: 20 | Blackgrass plant response rating [8, 18]: 40 | Plant response rating (0 to 100 scale), Crabgrass, Large [9, 16]: 80 | Crabgrass, Large plant response rating [9, 17]: 20 | Plant response rating, Crabgrass, Large ([9]; 500 g ai/ha, visual rating): 100 | Crabgrass, Large plant response rating [9, 18]: 60 | Oat, Wild plant response rating [10, 17]: 0 | Oat, Wild plant response rating [10, 18]: 40 | Plant response rating (0 to 100 scale), Pigweed [11, 16]: 70 | Pigweed plant response rating [11, 17]: 60 | Plant response rating, Pigweed ([11]; 500 g ai/ha, visual rating): 100 | Pigweed plant response rating [11, 18]: 80 | Plant response rating (0 to 100 scale), Cocklebur [12, 16]: 0 | Cocklebur plant response rating [12, 17]: 10 | Plant response rating, Cocklebur ([12]; 500 g ai/ha, visual rating): 0 | Cocklebur plant response rating [12, 18]: 10 | Plant response rating (0 to 100 scale), Surinam Grass [13, 16]: 20 | Surinam Grass plant response rating [13, 17]: 20 | Plant response rating, Surinam Grass ([13]; 500 g ai/ha, visual rating): 60 | Surinam Grass plant response rating [13, 18]: 40 | Plant response rating (0 to 100 scale), Lambsquarters [14, 16]: 60 | Lambsquarters plant response rating [14, 17]: 10 | Plant response rating, Lambsquarters ([14]; 500 g ai/ha, visual rating): 100 | Lambsquarters plant response rating [14, 18]: 50 | Sedge, Umbrella plant response rating [15]: 80
